The assay has as its target T1, human CB2R (Homo sapiens, UniProt P34972).
T1 construct: host or cells: CHO cells
Nature of the assay: CB2R mediated modulation of cAMP synthesis. The assay is classed as cell-based. As to conditions: found through the use of the above described assays (binding and cAMP); CHO cells expressing human CB2R, forskolin-stimulated cAMP. A digest of the protocol:
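CHO cells expressing human CB2R were treated for 30 min at 37 °C with compound in buffer containing 1 mM IBMX, 0.25% BSA and 10 uM forskolin. cAMP was measured after lysis. EC50 is the concentration giving 50% inhibition of forskolin-stimulated cAMP, scaled to the level set by 1 uM CP55940, fitted by four-parameter logistic.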
T1 sequence (P34972 whole entry): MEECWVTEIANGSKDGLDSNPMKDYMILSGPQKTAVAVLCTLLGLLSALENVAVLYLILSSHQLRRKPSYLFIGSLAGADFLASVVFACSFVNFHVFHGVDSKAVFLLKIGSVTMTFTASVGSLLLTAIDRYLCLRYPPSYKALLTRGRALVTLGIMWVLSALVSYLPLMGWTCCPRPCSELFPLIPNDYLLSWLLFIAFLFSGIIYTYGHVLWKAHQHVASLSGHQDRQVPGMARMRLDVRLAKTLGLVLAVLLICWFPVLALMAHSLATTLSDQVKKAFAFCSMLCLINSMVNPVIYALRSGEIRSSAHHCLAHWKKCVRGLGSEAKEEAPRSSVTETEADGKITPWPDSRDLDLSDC
Turning to `CC(C)(C)c1csc(NC(=O)C(C)(C)S(=O)(=O)c2ccc(C#N)cc2F)n1` [N-(4-tert-Butyl-thiazol-2-yl)-2-(4-cyano-2-fluoro-benzenesulfonyl)-2-methyl-propionamide], the agonistic activity entry is reported as “agonistic activity”.
The same measure for `CC(C)(C)c1csc(NC(=O)C(C)(C)S(=O)(=O)c2ccc(F)cc2)n1` [N-(4-tert-Butyl-thiazol-2-yl)-2-(4-fluoro-benzenesulfonyl)-2-methyl-propionamide]: “agonistic activity”; for `CC(C)(C)c1csc(NC(=O)C(C)(C)S(=O)(=O)c2ccc(Cl)nc2)n1` [N-(4-tert-Butyl-thiazol-2-yl)-2-(6-chloro-pyridine-3-sulfonyl)-2-methyl-propionamide]: “agonistic activity”; for `COc1ccc(S(=O)(=O)C(C)(C)C(=O)Nc2nc(C(C)(C)C)cs2)cn1` [N-(4-tert-Butyl-thiazol-2-yl)-2-(6-methoxy-pyridine-3-sulfonyl)-2-methyl-propionamide]: “agonistic activity”.
The same measure for `CC(C)(C)c1csc(NC(=O)C(C)(C)S(=O)(=O)c2cccc(C(F)(F)F)c2)n1` [N-(4-tert-Butyl-thiazol-2-yl)-2-methyl-2-(3-trifluoromethyl-benzenesulfonyl)-propionamide]: “agonistic activity”; for `CC(C)(C)c1csc(NC(=O)C(C)(C)S(=O)(=O)c2ccc(C(F)(F)F)cc2)n1` [N-(4-tert-Butyl-thiazol-2-yl)-2-methyl-2-(4-trifluoromethyl-benzenesulfonyl)-propionamide]: “agonistic activity”.
The entry for `CC(C)(C)c1csc(NC(=O)C(C)(C)S(=O)(=O)c2ccc(C(F)(F)F)nc2)n1` [N-(4-tert-Butyl-thiazol-2-yl)-2-methyl-2-(6-trifluoromethyl-pyridine-3-sulfonyl)-propionamide] is “agonistic activity”; for `CC(C)(C)c1csc(NC(=O)C(C)(C)S(=O)(=O)c2ccc3ccccc3c2)n1` [N-(4-tert-Butyl-thiazol-2-yl)-2-methyl-2-(naphthalene-2-sulfonyl)-propionamide] it is “agonistic activity”.
For the compound `CC(C)(C)c1csc(NC(=O)C(C)(C)S(=O)(=O)c2cccnc2)n1` [N-(4-tert-Butyl-thiazol-2-yl)-2-methyl-2-(pyridine-3-sulfonyl)-propionamide], the agonistic activity result was “agonistic activity”.
As for `Cc1ccccc1S(=O)(=O)C(C)(C)C(=O)Nc1nc(C(C)(C)C)cs1` [N-(4-tert-Butyl-thiazol-2-yl)-2-methyl-2-(toluene-2-sulfonyl)-propionamide], the agonistic activity entry is “agonistic activity”.
For the compound `Cc1ccc(S(=O)(=O)C(C)(C)C(=O)Nc2nc(C(C)(C)C)cs2)cc1` [N-(4-tert-Butyl-thiazol-2-yl)-2-methyl-2-(toluene-4-sulfonyl)-propionamide], the agonistic activity result is listed as “agonistic activity”.
The same measure for `CC(C)C(C(=O)Nc1nc(C(C)(C)C)cs1)S(=O)(=O)c1ccc(C(F)(F)F)cc1` (stereo not drawn) [N-(4-tert-Butyl-thiazol-2-yl)-3-methyl-2-(4-trifluoromethyl-benzenesulfonyl)-butyramide]: “agonistic activity”; for `COc1ccc(S(=O)(=O)C(C)(C)C(=O)Nc2nc(C(C)(C)C)cs2)cc1` [N-(4-tert-butyl-1,3-thiazol-2-yl)-2-[(4-methoxyphenyl)sulfonyl]-2-methylpropanamide]: “agonistic activity”.
The entry for `CC(C)(C)c1nc(NC(=O)C(C)(C)S(=O)(=O)c2ccc(Cl)cc2)sc1C#N` [N-(4-tert-butyl-5-cyano-1,3-thiazol-2-yl)-2-[(4-chlorophenyl)sulfonyl]-2-methylpropanamide] is “agonistic activity”; for `CC(C)(C)c1ccc(NC(=O)C(C)(C)S(=O)(=O)c2ccc(Cl)cc2F)cc1` [N-(4-tert-butylphenyl)-2-[(4-chloro-2-fluorophenyl)sulfonyl]-2-methylpropanamide] it is “agonistic activity”; for `CC(C)(C)c1ccc(NC(=O)C(C)(C)S(=O)(=O)c2ccc(C(F)(F)F)nc2)cc1` [N-(4-tert-butylphenyl)-2-methyl-2-{[6-(trifluoromethyl)pyridin-3-yl]sulfonyl}propanamide] it is “agonistic activity”.
On to `Cn1nc(C2CC2)cc1NC(=O)C(C)(C)S(=O)(=O)c1ccc(F)cc1F` [N-(5-Cyclopropyl-2-methyl-2H-pyrazol-3-yl)-2-(2,4-difluoro-benzenesulfonyl)-2-methyl-propionamide], for which the agonistic activity entry is on record as “agonistic activity”.
Regarding `CCc1sc(NC(=O)C(C)(C)S(=O)(=O)c2ccc(OC)cc2)nc1-c1ccccc1` [N-(5-ethyl-4-phenyl-1,3-thiazol-2-yl)-2-[(4-methoxyphenyl)sulfonyl]-2-methylpropanamide], the agonistic activity entry is recorded as “agonistic activity”.
The entry for `CCc1sc(NC(=O)C(C)(C)S(=O)(=O)c2ccc(S(C)(=O)=O)cc2)nc1-c1ccccc1` [N-(5-ethyl-4-phenyl-1,3-thiazol-2-yl)-2-methyl-2-{[4-(methylsulfonyl)phenyl]sulfonyl}propanamide] is “agonistic activity”.
As to `CCc1sc(NC(=O)C(C)(C)S(=O)(=O)c2ccc(C(F)(F)F)nc2)nc1-c1ccccc1` [N-(5-ethyl-4-phenyl-1,3-thiazol-2-yl)-2-methyl-2-{[6-(trifluoromethyl)pyridin-3-yl]sulfonyl}propanamide], the agonistic activity result is given as “agonistic activity”.
For `CCC(C)c1cc(NC(=O)C(C)(C)S(=O)(=O)c2ccc(Cl)cc2)n(C)n1` (stereo not drawn) [N-(5-sec-Butyl-2-methyl-2H-pyrazol-3-yl)-2-(4-chloro-benzenesulfonyl)-2-methyl-propionamide], the agonistic activity entry is “agonistic activity”.
In the case of `CCC(C)c1ccc(NC(=O)C(C)(C)S(=O)(=O)c2ccc(Cl)cc2)nc1` (stereo not drawn) [N-(5-sec-Butyl-pyridin-2-yl)-2-(4-chloro-benzenesulfonyl)-2-methyl-propionamide], the agonistic activity result is “agonistic activity”.
With `Cn1nc(C(C)(C)C)cc1NC(=O)C(C)(C)S(=O)(=O)c1ccc(F)cc1F` [N-(5-tert-Butyl-2-methyl-2H-pyrazol-3-yl)-2-(2,4-difluoro-benzenesulfonyl)-2-methyl-propionamide], the agonistic activity result is reported as “agonistic activity”.
The entry for `Cn1nc(C(C)(C)C)cc1NC(=O)C(C)(C)S(=O)(=O)c1cc(F)ccc1F` [N-(5-tert-Butyl-2-methyl-2H-pyrazol-3-yl)-2-(2,5-difluoro-benzenesulfonyl)-2-methyl-propionamide] is “agonistic activity”.
For the compound `Cc1ccc(S(=O)(=O)C(C)(C)C(=O)Nc2cc(C(C)(C)C)nn2C)c(F)c1` [N-(5-tert-Butyl-2-methyl-2H-pyrazol-3-yl)-2-(2-fluoro-4-methyl-benzenesulfonyl)-2-methyl-propionamide], the agonistic activity result is on record as “agonistic activity”.
Consider `Cn1nc(C(C)(C)C)cc1NC(=O)C(C)(C)S(=O)(=O)c1ccccc1F` [N-(5-tert-Butyl-2-methyl-2H-pyrazol-3-yl)-2-(2-fluoro-benzenesulfonyl)-2-methyl-propionamide], for which the agonistic activity entry was “agonistic activity”.
For `COc1ccc(S(=O)(=O)C(C)(C)C(=O)Nc2cc(C(C)(C)C)nn2C)cc1F` [N-(5-tert-Butyl-2-methyl-2H-pyrazol-3-yl)-2-(3-fluoro-4-methoxy-benzenesulfonyl)-2-methyl-propionamide], the agonistic activity entry is reported as “agonistic activity”.
